From patent publication US10160705B2, “Class of HDAC inhibitors expands the renal progenitor cells population and improves the rate of recovery from acute kidney injury” (University of Pittsburgh—Of the Commonwealth System of …, priority 2011, dated 2018)
Entries after “also recorded” stand apart in the source; their conditions may differ. Like-named read-outs stand apart in the source and are kept apart here.

Tests used:
zebrafish embryos = experiment: Phenotypic screen for edema and survival in zebrafish larvae at 72 hpf; conditions: for Dead / Edemic 1 (E1) / Edemic 2 (E2) / Edemic 3 (E3) / Wild-type (WT): number of larvae (of 36), 3 μM from 2 hpf, scored at 72 hpf; for larvae with edemic phenotype / pericardial edema by 72 hpf: 3 μM PTBA; for larvae with edemic phenotype / pericardial edema by 72 hpf / death by 72 hpf: 25 μM PBA, 200 nM TSA; for death by 72 hpf: n=90
Outline: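 Embryos (5/well in primary screen; 12–30 per group otherwise) exposed from 2 hpf in E3 medium with 0.5% DMSO, 10 μM in screen or stated concentrations, 28.5 °C for 70 h. At 72 hpf, edema scored by phenotype classification (dominant phenotype in ≥4/5 embryos in screen); survival vs 0 μM by two-tailed Fisher's exact test (p<0.05).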

renal progenitor cells = experiment: In situ hybridization for lhx1a expression in 10-somite embryos (renal progenitor cell expansion); format: in vivo; conditions: for Lhx1a expansion caused by analog treatment, 800 nM: 800 nM from 2 hpf; for EC50: first pass EC50 from percent expansion (Excel trendline), average where several experiments; for concentration producing an expansion of lhx1a expression consistent with 3 μM PTBA: concentration-response; on Lhx1a expansion caused by analog treatment, 100 nM: key: effective (+); partially effective (+/−); ineffective (−); Analogs that killed all embryos at a given concentration before reaching 10 somites are listed as XX; on Lhx1a expansion caused by analog treatment, 3 μM: key: effective (+); partially effective (+/−); ineffective (−); Analogs that killed all embryos at a given concentration before reaching 10 somites are listed as XX; on Lhx1a expansion caused by analog treatment, 400 nM: key: effective (+); partially effective (+/−); ineffective (−); Analogs that killed all embryos at a given concentration before reaching 10 somites are listed as XX; on Lhx1a expansion caused by analog treatment, 800 nM: key: effective (+); partially effective (+/−); ineffective (−); Analogs that killed all embryos at a given concentration before reaching 10 somites are listed as XX
Outline: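 Zebrafish embryos treated with compound, then colorimetric whole-mount in situ hybridization (65° C) for lhx1a mRNA at 10 somites. Embryos with expanded kidney field counted manually as percent of total. EC50 taken as 50% point of percent-expansion trendline; compounds also classed effective, partial or ineffective versus PTBA at matched concentration.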

CD1 mice = experiment: Folic acid-induced AKI in CD1 mice; format: in vivo, mouse; conditions: daily IP from 24 hrs after folic acid, 15 days
Experimental: FIG. 42 are photomicrographs showing the results of an AKI model using folic acid-induced injury. Folic acid is administered to CD1 mice (n=6/group) intraperitoneally (IP) at […] in 0.3M NaHCO3. Compound UPHD-00022 was injected daily IP at […] in 30% PEG300 vehicle starting 24 hrs after folic acid treatment. Kidney tissue was stained using Trichrome and Sirus Red stained after 15 days. Blue in trichrome and the red in sirus red indicates fibrotic (scar) tissue.

human HDACs = experiment: Fluorescence histone deacetylation assay with HeLa cell nuclear extract; format: biochemical
Experimental: To evaluate this in vitro, the deacetylation of a fluorescent peptide substrate was measured in the presence of human HDACs.
In vitro HDAC activity assays were performed using a fluorescence HDAC assay kit (Active Motif) according to the manufacturer's instructions. For maintaining compound solubility at 5 mM, the final DMSO concentration in all assay wells was increased to 5%. Fluorescence was detected using an M5 Plate Reader ([…])

histone H4 = experiment: Histone H4 hyperacetylation Western blot in treated embryos; format: in vivo, zebrafish; conditions: 24 hpf embryos, 6 hours; 3 μM PTBA, 25 μM PBA, 200 nM TSA
Experimental: It was next determined whether the HDACi function of PTBA was quantifiable in vivo. 24 hpf embryos were treated with 3 μM PTBA, 25 μM PBA, or 200 nM TSA for 6 hours. Protein extracts were prepared and immunoblotted with an anti-hyperacetylated histone H4 antibody. […] Furthermore, increasing the compound concentration caused a corresponding increase in hyperacetylation (FIG. 21).
SDS-PAGE and Western blotting were performed as described previously with some modifications (Noel, E. S. et al. Organ-specific requirements for Hdac1 in liver and pancreas formation. Dev Biol 322, 237-250, (2008)). Proteins were separated on 18% SDS-PAGE gels. Membranes were incubated at 4° C. overnight with 1:1000 anti-hyperacetylated histone H4 antibody (06-946, Millipore) or 1:1000 anti-α-tubulin antibody (Sigma-Aldrich) in PBT containing 5% nonfat milk.

HDAC = conditions: 5 mM; cited from earlier work
[1] = system: mesodermal markers myod1, fli1a, and ntla; experiment: In situ hybridization for the mesodermal markers myod1, fli1a and ntla in 10-somite embryos; format: in vivo, zebrafish
Experimental: PTBA was synthesized as described below. Hydroxyurea and aphidicolin were obtained from Sigma-Aldrich.
In situ hybridization and immunocytochemistry: In situ hybridization was performed as previously described with some modifications.142 Hybridization temperature was 65° C. Embryos were blocked in 2% blocking reagent (Roche) with 5% sheep serum in MAB (100 mM maleic acid and 150 mM NaCl [pH 7.5]). Whole-mount immunocytochemistry with 1:25 mouse anti-α6F antibody (Developmental Studies Hybridoma Bank) and 1:100 Cy3 secondary antibody (Jackson ImmunoResearch) was performed as described previously.108 Embryos were embedded in JB-4 for sectioning per the manufacturer's instructions (Polysciences), sectioned at 5 μm, and mounted with Cytoseal 60 (Richard-Allan Scientific).

[2] = cited from earlier work
Acetylated Histone H3 K9 = experiment: Renal histone acetylation after single S/C injection in CD1 mice; format: in vivo, mouse; conditions: 3.4 mg/kg single SC injection, 24 hours
Experimental: PTBA analogs are used at a dose range determined from comparative dose efficacy with m4PTB in the secondary zebrafish screen. […] Preliminary studies compared the effect of Trichostatin A (an established, but toxic HDACi) at an effective dose in the zebrafish screen ([…]) with an equivalent dose of m4PTB (0.8 mM), and then ×2 and ×4 dose increments (molar concentration in vivo based on estimate uniform distribution relative to body mass of water). […] Studies may be performed on 3 mice/group.

[3] = system: proximal convoluted tubule cells; experiment: Renal cell proliferation post gentamycin-induced AKI in zebrafish larvae; format: in vivo; conditions: 4 μM added 2 days post injection of gentamicin, EdU at 5 days post injection
Experimental: FIG. 43A is a graph showing the results of an AKI model using gentamycin-induced injury. AKI is generated as per a recent publication, Cianciolo Cosenitino, C., et al. ((2010) Intravenous microinjections of zebrafish larvae to study acute kidney injury. JoVE August 4 (42), pii: 2079. doi: 10.3791/2079). Four micromolar m4PTB (UPHD-00025) was added to the zebrafish E3 media in 0.5% DMSO at 2 days post injection of gentamicin and the larvae are scored daily for four days (6 days post injection) as alive or dead, with the final data tallied on day 6 post injection FIG. 43B.
Proliferation of renal cells was examined post AKI for m4PTB in zebrafish larvae (FIG. 44). AKI is generated as above with gentamycin, essentially as described in Example 11. Four μM m4PTB was added 2 days post injection of gentamicin. Zebrafish larvae at 5 days post injection were treated for 1 hour with the thymidine analogue EdU (10 milimolar), which incorporates into dividing (proliferating cells) while the larvae are in the zebrafish E3 media. The larvae where then fixed and processed for histology to count the number of proliferating cells in the proximal convulted tubule (as marked by the antibody 3G8). The number of proliferating cells was divided by the total number of cells in the proximal convoluted tubule to generate the percent of proliferation also known as the proliferation index as shown in FIG. 44.

[4] = 1.5 μM from 2 hpf, 10-somite embryos
[5] = 3 μM from 2 hpf, 10-somite embryos
[6] = Danio rerio, 1.5 μM from 2 hpf, 10-somite embryos, read-out: lhx1a expansion, percent of treated embryos
[7] = Danio rerio, percent of embryos with expanded kidney field, 1.5 μM, read-out: Expansion of Cells (including repeats* and recounts**) 1.5 μM
[8] = Danio rerio, percent of embryos with expanded kidney field, 3 μM, read-out: Expansion of Cells (including repeats* and recounts**) 3 μM
[9] = 100 nM from 2 hpf, 10-somite embryos
[10] = 200 nM from 2 hpf, 10-somite embryos

SMILES | Dead (zebrafish embryos) | Edemic 1 (E1) (zebrafish embryos) | Edemic 2 (E2) (zebrafish embryos) | Edemic 3 (E3) (zebrafish embryos) | Wild-type (WT) (zebrafish embryos) | Lhx1a expansion caused by analog treatment, 800 nM (renal progenitor cells; 10-somite embryos) | Lhx1a expansion caused by analog treatment, 1.5 μM (renal progenitor cells; [4]) | Lhx1a expansion caused by analog treatment, 3 μM (renal progenitor cells; [5]) | responders at 1.5 µM (renal progenitor cells; [6]) [%] | responders at 1.5 µM (renal progenitor cells; [7]) [%] | responders at 3 µM (renal progenitor cells; [8]) [%] | EC50 (renal progenitor cells; Danio rerio) [nM] | larvae with edemic phenotype / pericardial edema by 72 hpf (zebrafish embryos) [%] | death by 72 hpf (zebrafish embryos) [%] | concentration producing an expansion of lhx1a expression consistent with 3 μM PTBA (renal progenitor cells; 10-somite embryos) [µM] | histone H4 hyperacetylation (histone H4) | other results
COC(=O)CCCSc1ccc(OC)cc1 [UPHD-00022, methyl 4-[(4-methoxy-phenyl)sulfanyl]butanoate] | 1 | 2 | 24 | 9 | 0 | + | + | + | 91 | 83 | 85 | 1400 |  |  |  |  | Lhx1a expansion caused by analog treatment, 400 nM (renal progenitor cells; 400 nM from 2 hpf, 10-somite embryos): +/−; responders at 0.8 µM (renal progenitor cells; Danio rerio, percent of embryos with expanded kidney field, 800 nM, read-out: Expansion of Cells (including repeats* and recounts**) 800 nM): 39%; responders at 0.4 µM (renal progenitor cells; Danio rerio, read-out: lhx1a expansion, percent of treated embryos, 400 nM from 2 hpf, 10-somite embryos): 29%; responders at 0.8 µM (renal progenitor cells; Danio rerio, read-out: lhx1a expansion, percent of treated embryos, 800 nM from 2 hpf, 10-somite embryos): 57%; renal fibrosis (Trichrome and Sirus Red) (CD1 mice): reduction in fibrosis
O=C(O)CCCc1ccccc1 [PBA, 4-phenylbutanoic acid, reference compound] | 0 | 0 | 0 | 0 | 36 |  |  | − |  |  |  |  | 23 | 8 | 25 | Histone H4 hyperacetylation was observed | HDAC activity elicited by 10 μg HeLa extract, percent of the control value (human HDACs; 5 mM compound): 30%; HDAC activity, percent of the control value (HDAC): 19%
CC(/C=C/C(=O)NO)=C\[C@@H](C)C(=O)c1ccc(N(C)C)cc1 [TSA, trichostatin A, reference compound] | 36 | 0 | 0 | 0 | 0 |  |  |  |  |  |  |  | 100 | 61 | 0.2 | Histone H4 hyperacetylation was observed | treated 72 hpf larvae killed (zebrafish embryos; 300 nM): greater than 90%; Lhx1a expansion caused by analog treatment, 100 nM (renal progenitor cells; [9]): +; lhx1a expansion, percent of treated embryos (renal progenitor cells; [9]): 97%; Lhx1a expansion caused by analog treatment, 200 nM (renal progenitor cells; [10]): +; lhx1a expansion, percent of treated embryos (renal progenitor cells; [10]): 100%; lethality before reaching 10 somites (renal progenitor cells; 400 nM): died before reaching 10 somites; treated embryos killed (renal progenitor cells; 800 nM): lethal; lethality before the 10-somite stage (renal progenitor cells; 1.5 μM): lethal; lethality before the 10-somite stage (renal progenitor cells; 3 μM): killed all treated embryos; normal ntla expression disrupted, percent of treated embryos ([1]; 200 nM): 86%; myod1 expression decreased, percent of treated embryos ([1]; 3 μM PTBA (slightly decreased), 25 μM PBA, 200 nM TSA): 100%; fli1a expression decreased, percent of treated embryos ([1]; 25 μM PBA, 200 nM TSA): 95%; HDAC activity (human HDACs; 1 μM TSA, all input levels of nuclear extract): completely blocked activity
O=C(O)CCCc1ccccc1 [Buphenyl] |  |  |  |  |  |  |  |  |  |  |  |  |  |  |  |  | half-life (t1/2) ([2]; following administration): ~1 h; bioavailability ([2]; taken orally): about 80%
COC(=O)CCCSc1ccccc1 [UPHD-00025, methyl 4-(phenylsulfanyl)butanoate (m4PTB)] | 8 | 0 | 2 | 26 | 0 | +/− | + | + | 89 | 89 | 97 | 432 |  |  |  |  | responders at 3 µM (renal progenitor cells; Danio rerio, 3 μM from 2 hpf, 10-somite embryos, read-out: lhx1a expansion, percent of treated embryos): 100%; responders at 0.2 µM (renal progenitor cells; Danio rerio, percent of embryos with expanded kidney field, 200 nM, read-out: Expansion of Cells (including repeats* and recounts**) 200 nM): 33%; renal Ac-H3 K9 induction (Acetylated Histone H3 K9): maximal expression of Ac—H3 K9; also recorded: maximal induction of H3K9A; renal cell proliferation (proliferation index) [3]: significantly increased
